Data reported in patent EP0454444A1, “Glutarimide derivatives and herbicides” (NISSAN CHEMICAL INDUSTRIES LTD., priority 1990, dated 1991).

Assays:
Assay in all cases: Herbicidal effect test by soil treatment
Assay type in all cases: in vivo
[1] = test system: annual sedge (Cyperus microiria); conditions: three weeks after spraying
Source text: (§1) In a plastic box of 15 cm length, 22 cm width and 6 cm depth, there was placed a sterilized dilvial soil, and seeds of barnyardgrass (Echinochloa crusgalli), large crabgrass (Digitaria adscendens), annual sedge (Cyperus microiria), black nightshade (Solanum nigrum L.), hairly galinosoga (Galinsoga ciliat), rorippa ssp. (Rorippa atrovirens), rice (Oryza sativa), corn (Zea mays), wheat (Triticum aestivum), soybean (Glysine max) and cotton (Gossypium herbaceum) were sown mixedly. After covering soil to about 1 cm over the seeds, herbicides were sprayed evenly on the soil surface to predetermined proportions of the active ingredient In spraying, the wettable powder, emulsifiable concentrate, dry flowable or flowable in the above formulation examples were diluted with water and sprayed over the entire surface by means of a small sprayer. Three weeks after spraying, the herbicidal effect on crop plants including rice, corn, wheat, soybean, cotton and various kinds of weeds were examined according to the judgement criteria shown below. Judgement criteria
(§2) The above growth control rates are determined by measuring the top fresh weights of the treated plants and those of the non-treated plants, and culculated from the following formula: [formula]

[2] = test system: barnyardgrass (Echinochloa crusgalli); conditions: three weeks after spraying
Source text: as §1, §2

[3] = test system: black nightshade (Solanum nigrum L.); conditions: three weeks after spraying
Source text: as §1, §2

corn (Zea mays) = conditions: crop plant, three weeks after spraying
Source text: as §1, §2

[4] = test system: cotton (Gossypium herbaceum); conditions: crop plant, three weeks after spraying
Source text: as §1, §2

[5] = test system: hairly galinosoga (Galinsoga ciliat); conditions: three weeks after spraying
Source text: as §1, §2

[6] = test system: large crabgrass (Digitaria adscendens); conditions: three weeks after spraying
Source text: as §1, §2

rice (Oryza sativa) = conditions: crop plant, three weeks after spraying
Source text: as §1, §2

[7] = test system: rorippa ssp. (Rorippa atrovirens); conditions: three weeks after spraying
Source text: as §1, §2

soybean (Glysine max) = conditions: crop plant, three weeks after spraying
Source text: as §1, §2

[8] = test system: wheat (Triticum aestivum); conditions: crop plant, three weeks after spraying
Source text: as §1, §2

SMILES | herbicidal effect, K (Cyperus microiria) ([1]; application amount 0.4 g/a) | herbicidal effect, K (Cyperus microiria) ([1]; application amount 0.8 g/a) | herbicidal effect, K (Cyperus microiria) ([1]; application amount 1.6 g/a) | herbicidal effect, N (Echinochloa crusgalli) ([2]; application amount 0.4 g/a) | herbicidal effect, N (Echinochloa crusgalli) ([2]; application amount 0.8 g/a) | herbicidal effect, N (Echinochloa crusgalli) ([2]; application amount 1.6 g/a) | herbicidal effect, H (Solanum nigrum L.) ([3]; application amount 0.4 g/a) | herbicidal effect, H (Solanum nigrum L.) ([3]; application amount 0.8 g/a) | herbicidal effect, H (Solanum nigrum L.) ([3]; application amount 1.6 g/a) | herbicidal effect, T (Zea mays) (corn (Zea mays); application amount 0.4 g/a) | herbicidal effect, T (Zea mays) (corn (Zea mays); application amount 0.8 g/a) | herbicidal effect, T (Zea mays) (corn (Zea mays); application amount 1.6 g/a) | herbicidal effect, C (Gossypium herbaceum) ([4]; application amount 0.4 g/a) | herbicidal effect, C (Gossypium herbaceum) ([4]; application amount 1.6 g/a) | herbicidal effect, D (Galinsoga ciliat) ([5]; application amount 1.6 g/a) | herbicidal effect, M (Digitaria adscendens) ([6]; application amount 1.6 g/a) | herbicidal effect, R (Oryza sativa) (rice (Oryza sativa); application amount 1.6 g/a) | herbicidal effect, I (Rorippa indica) ([7]; application amount 1.6 g/a) | herbicidal effect, S (Glysine max) (soybean (Glysine max); application amount 1.6 g/a) | herbicidal effect, W (Triticum vulgare) ([8]; application amount 1.6 g/a) | also measured
O=C1COc2cc(F)c(N3C(=O)CC(C(F)(F)F)CC3=O)cc2N1Cc1ccccc1 [1-27] | 5 (Growth control,rates of more than 90% (almost completely withered)) | 5 (Growth control,rates of more than 90% (almost completely withered)) | 5 (Growth control,rates of more than 90% (almost completely withered)) | 5 (Growth control,rates of more than 90% (almost completely withered)) | 5 (Growth control,rates of more than 90% (almost completely withered)) | 5 (Growth control,rates of more than 90% (almost completely withered)) | 5 (Growth control,rates of more than 90% (almost completely withered)) | 5 (Growth control,rates of more than 90% (almost completely withered)) | 5 (Growth control,rates of more than 90% (almost completely withered)) | 0 (Growth control rates of less than 5% (substantially no effect)) | 1 (Growth control rates of 5 to 20%) | 4 (Growth control rates of 70 to 90%) | 0 (Growth control rates of less than 5% (substantially no effect)) | 2 (Growth control rates of 20 to 40%) | 5 (Growth control,rates of more than 90% (almost completely withered)) | 5 (Growth control,rates of more than 90% (almost completely withered)) | 4 (Growth control rates of 70 to 90%) | 5 (Growth control,rates of more than 90% (almost completely withered)) | 1 (Growth control rates of 5 to 20%) | 5 (Growth control,rates of more than 90% (almost completely withered)) | herbicidal effect, C (Gossypium herbaceum) ([4]; application amount 0.8 g/a): 1 (Growth control rates of 5 to 20%); herbicidal effect, D (Galinsoga ciliat) ([5]; application amount 0.4 g/a): 5 (Growth control,rates of more than 90% (almost completely withered)); herbicidal effect, D (Galinsoga ciliat) ([5]; application amount 0.8 g/a): 5 (Growth control,rates of more than 90% (almost completely withered)); herbicidal effect, M (Digitaria adscendens) ([6]; application amount 0.4 g/a): 5 (Growth control,rates of more than 90% (almost completely withered)); herbicidal effect, M (Digitaria adscendens) ([6]; application amount 0.8 g/a): 5 (Growth control,rates of more than 90% (almost completely withered)); herbicidal effect, R (Oryza sativa) (rice (Oryza sativa); application amount 0.4 g/a): 2 (Growth control rates of 20 to 40%); herbicidal effect, R (Oryza sativa) (rice (Oryza sativa); application amount 0.8 g/a): 3 (Growth control rates of 40 to 70%); herbicidal effect, I (Rorippa indica) ([7]; application amount 0.4 g/a): 5 (Growth control,rates of more than 90% (almost completely withered)); herbicidal effect, I (Rorippa indica) ([7]; application amount 0.8 g/a): 5 (Growth control,rates of more than 90% (almost completely withered)); herbicidal effect, S (Glysine max) (soybean (Glysine max); application amount 0.4 g/a): 0 (Growth control rates of less than 5% (substantially no effect)); herbicidal effect, S (Glysine max) (soybean (Glysine max); application amount 0.8 g/a): 0 (Growth control rates of less than 5% (substantially no effect)); herbicidal effect, W (Triticum vulgare) ([8]; application amount 0.4 g/a): 2 (Growth control rates of 20 to 40%); herbicidal effect, W (Triticum vulgare) ([8]; application amount 0.8 g/a): 4 (Growth control rates of 70 to 90%)
O=C1COc2cc(F)c(N3C(=O)CC(C(F)(F)F)CC3=O)cc2N1 [1-25] | – | – | 5 (Growth control,rates of more than 90% (almost completely withered)) | – | – | 5 (Growth control,rates of more than 90% (almost completely withered)) | – | – | 5 (Growth control,rates of more than 90% (almost completely withered)) | – | – | 0 (Growth control rates of less than 5% (substantially no effect)) | – | 1 (Growth control rates of 5 to 20%) | 5 (Growth control,rates of more than 90% (almost completely withered)) | 5 (Growth control,rates of more than 90% (almost completely withered)) | 1 (Growth control rates of 5 to 20%) | 5 (Growth control,rates of more than 90% (almost completely withered)) | 0 (Growth control rates of less than 5% (substantially no effect)) | 0 (Growth control rates of less than 5% (substantially no effect)) | –
CC(C)OC(=O)c1cc(N2C(=O)CC(C(F)(F)F)C(C)C2=O)c(F)cc1Cl (centres unmarked) [1-3] | 5 (Growth control,rates of more than 90% (almost completely withered)) | 5 (Growth control,rates of more than 90% (almost completely withered)) | 5 (Growth control,rates of more than 90% (almost completely withered)) | 5 (Growth control,rates of more than 90% (almost completely withered)) | 5 (Growth control,rates of more than 90% (almost completely withered)) | 5 (Growth control,rates of more than 90% (almost completely withered)) | 5 (Growth control,rates of more than 90% (almost completely withered)) | 5 (Growth control,rates of more than 90% (almost completely withered)) | 5 (Growth control,rates of more than 90% (almost completely withered)) | 2 (Growth control rates of 20 to 40%) | 3 (Growth control rates of 40 to 70%) | 4 (Growth control rates of 70 to 90%) | 0 (Growth control rates of less than 5% (substantially no effect)) | 3 (Growth control rates of 40 to 70%) | 5 (Growth control,rates of more than 90% (almost completely withered)) | 5 (Growth control,rates of more than 90% (almost completely withered)) | 5 (Growth control,rates of more than 90% (almost completely withered)) | 5 (Growth control,rates of more than 90% (almost completely withered)) | 2 (Growth control rates of 20 to 40%) | 5 (Growth control,rates of more than 90% (almost completely withered)) | herbicidal effect, C (Gossypium herbaceum) ([4]; application amount 0.8 g/a): 1 (Growth control rates of 5 to 20%); herbicidal effect, D (Galinsoga ciliat) ([5]; application amount 0.4 g/a): 5 (Growth control,rates of more than 90% (almost completely withered)); herbicidal effect, D (Galinsoga ciliat) ([5]; application amount 0.8 g/a): 5 (Growth control,rates of more than 90% (almost completely withered)); herbicidal effect, M (Digitaria adscendens) ([6]; application amount 0.4 g/a): 5 (Growth control,rates of more than 90% (almost completely withered)); herbicidal effect, M (Digitaria adscendens) ([6]; application amount 0.8 g/a): 5 (Growth control,rates of more than 90% (almost completely withered)); herbicidal effect, R (Oryza sativa) (rice (Oryza sativa); application amount 0.4 g/a): 4 (Growth control rates of 70 to 90%); herbicidal effect, R (Oryza sativa) (rice (Oryza sativa); application amount 0.8 g/a): 5 (Growth control,rates of more than 90% (almost completely withered)); herbicidal effect, I (Rorippa indica) ([7]; application amount 0.4 g/a): 5 (Growth control,rates of more than 90% (almost completely withered)); herbicidal effect, I (Rorippa indica) ([7]; application amount 0.8 g/a): 5 (Growth control,rates of more than 90% (almost completely withered)); herbicidal effect, S (Glysine max) (soybean (Glysine max); application amount 0.4 g/a): 0 (Growth control rates of less than 5% (substantially no effect)); herbicidal effect, S (Glysine max) (soybean (Glysine max); application amount 0.8 g/a): 0 (Growth control rates of less than 5% (substantially no effect)); herbicidal effect, W (Triticum vulgare) ([8]; application amount 0.4 g/a): 2 (Growth control rates of 20 to 40%); herbicidal effect, W (Triticum vulgare) ([8]; application amount 0.8 g/a): 3 (Growth control rates of 40 to 70%)
